# Results from PubChem BioAssay AID2060901 (Molecular Pharmacology Branch, DTP, NCI, 2025).
# System: 422866-222-R5-J1-PDC complex spheroids viability
# Test: Anticancer human tumor 422866-222-R5-J1-PDC patient-derived pancreatic adenocarcinoma cell line growth inhibition [RAS]
# Details: for IC50: curve of first compound; for viability, T/C: stronger effect = lower value
# Procedure, shortened: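 Multi-cell-type spheroids: tumor cells plus HUVEC endothelial cells and mesenchymal stem cells. RAS-pathway inhibitors were combined with targeted agents, each dosed in half-log steps down from clinical Cmax, or from 10 microM when Cmax was unknown.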
# [1] = second compound 0.000949 µM, first compound 0.0316 µM
# [2] = second compound 0.000949 µM, first compound 0.1 µM
# [3] = second compound 0.000949 µM, first compound 0.316 µM
# [4] = second compound 0.000949 µM, first compound 1 µM
# [5] = second compound 0.000949 µM, first compound 3.16 µM
# [6] = second compound 0.000949 µM, first compound 10 µM
# [7] = second compound 0.003 µM, first compound 0.0316 µM
# [8] = second compound 0.003 µM, first compound 0.1 µM
# [9] = second compound 0.003 µM, first compound 0.316 µM
# [10] = second compound 0.003 µM, first compound 1 µM
# [11] = second compound 0.003 µM, first compound 3.16 µM
# [12] = second compound 0.003 µM, first compound 10 µM
# [13] = second compound 0.00949 µM, first compound 0.0316 µM
# [14] = second compound 0.00949 µM, first compound 0.1 µM
# [15] = second compound 0.00949 µM, first compound 0.316 µM
# [16] = second compound 0.00949 µM, first compound 1 µM
# [17] = second compound 0.00949 µM, first compound 3.16 µM
# [18] = second compound 0.00949 µM, first compound 10 µM
# [19] = second compound 0.03 µM, first compound 0.0316 µM
# [20] = second compound 0.03 µM, first compound 0.1 µM
# [21] = second compound 0.03 µM, first compound 0.316 µM
# [22] = second compound 0.03 µM, first compound 1 µM
# [23] = second compound 0.03 µM, first compound 3.16 µM
# [24] = second compound 0.03 µM, first compound 10 µM
# [25] = second compound 0.0949 µM, first compound 0.0316 µM
# [26] = second compound 0.0949 µM, first compound 0.1 µM
# [27] = second compound 0.0949 µM, first compound 0.316 µM
# [28] = second compound 0.0949 µM, first compound 1 µM
# [29] = second compound 0.0949 µM, first compound 3.16 µM
# [30] = second compound 0.0949 µM, first compound 10 µM
# [31] = second compound 0.3 µM, first compound 0.0316 µM
# [32] = second compound 0.3 µM, first compound 0.1 µM
# [33] = second compound 0.3 µM, first compound 0.316 µM
# [34] = second compound 0.3 µM, first compound 1 µM
# [35] = second compound 0.3 µM, first compound 3.16 µM
# [36] = second compound 0.3 µM, first compound 10 µM
# 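Also: spheroids exposed to compounds for 7 days.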
# 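For viability, T/C in this document: 100% = DMSO vehicle control viability.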
compound,measurement,setting,value
CC1(O)CCCC1n1c(=O)c(C(F)F)cc2cnc(NC3CCN(S(C)(=O)=O)CC3)nc21 (centres undefined) + CCn1c(-c2cccnc2C(C)OC)c2c3cc(ccc31)N1CCOC(CC(NC(=O)C(C(C)C)N(C)C(=O)C3(F)CCN(C(=O)C#CC(C)(C)N(C)C)CC3)C(=O)N3CCCC(N3)C(=O)OCC(C)(C)C2)C1,IC50,second compound 0.000949 µM,< 31.6 nM
same,IC50,second compound 0.003 µM,< 31.6 nM
same,IC50,second compound 0.00949 µM,< 31.6 nM
same,IC50,second compound 0.03 µM,< 31.6 nM
same,IC50,second compound 0.0949 µM,< 31.6 nM
same,IC50,second compound 0.3 µM,< 31.6 nM
same,"viability, T/C",[1],28.6%
same,"viability, T/C",[2],30.5%
same,"viability, T/C",[3],29.6%
same,"viability, T/C",[4],31.9%
same,"viability, T/C",[5],40.8%
same,"viability, T/C",[6],38.2%
same,"viability, T/C",[7],24.8%
same,"viability, T/C",[8],34.6%
same,"viability, T/C",[9],24.7%
same,"viability, T/C",[10],27.1%
same,"viability, T/C",[11],29.8%
same,"viability, T/C",[12],38.2%
same,"viability, T/C",[13],25.3%
same,"viability, T/C",[14],24.8%
same,"viability, T/C",[15],25.2%
same,"viability, T/C",[16],26.8%
same,"viability, T/C",[17],34.3%
same,"viability, T/C",[18],45.2%
same,"viability, T/C",[19],22.9%
same,"viability, T/C",[20],20.5%
same,"viability, T/C",[21],23.5%
same,"viability, T/C",[22],23%
same,"viability, T/C",[23],29.7%
same,"viability, T/C",[24],45.4%
same,"viability, T/C",[25],21.1%
same,"viability, T/C",[26],20.5%
same,"viability, T/C",[27],22.4%
same,"viability, T/C",[28],22%
same,"viability, T/C",[29],29.9%
same,"viability, T/C",[30],43.5%
same,"viability, T/C",[31],15.5%
same,"viability, T/C",[32],19.8%
same,"viability, T/C",[33],19%
same,"viability, T/C",[34],20.5%
same,"viability, T/C",[35],24.9%
same,"viability, T/C",[36],47.3%
CC(C)NCC(C(=O)N1CCN(c2ncnc3c2C(C)CC3O)CC1)c1ccc(Cl)cc1 (centres undefined) + CCn1c(-c2cccnc2C(C)OC)c2c3cc(ccc31)N1CCOC(CC(NC(=O)C(C(C)C)N(C)C(=O)C3(F)CCN(C(=O)C#CC(C)(C)N(C)C)CC3)C(=O)N3CCCC(N3)C(=O)OCC(C)(C)C2)C1,IC50,second compound 0.000949 µM,< 31.6 nM
same,IC50,second compound 0.003 µM,< 31.6 nM
same,IC50,second compound 0.00949 µM,< 31.6 nM
same,IC50,second compound 0.03 µM,< 31.6 nM
same,IC50,second compound 0.0949 µM,< 31.6 nM
same,IC50,second compound 0.3 µM,< 31.6 nM
same,"viability, T/C",[1],23%
same,"viability, T/C",[2],23.2%
same,"viability, T/C",[3],17.5%
same,"viability, T/C",[4],25%
same,"viability, T/C",[5],30.9%
same,"viability, T/C",[6],29.7%
same,"viability, T/C",[7],22.5%
same,"viability, T/C",[8],17.6%
same,"viability, T/C",[9],14.4%
same,"viability, T/C",[10],14.7%
same,"viability, T/C",[11],14.4%
same,"viability, T/C",[12],16.7%
same,"viability, T/C",[13],21.1%
same,"viability, T/C",[14],18.9%
same,"viability, T/C",[15],13.8%
same,"viability, T/C",[16],13.3%
same,"viability, T/C",[17],14.8%
same,"viability, T/C",[18],14.6%
same,"viability, T/C",[19],17.5%
same,"viability, T/C",[20],16%
same,"viability, T/C",[21],12.9%
same,"viability, T/C",[22],12.1%
same,"viability, T/C",[23],14.2%
same,"viability, T/C",[24],16.2%
same,"viability, T/C",[25],15.2%
same,"viability, T/C",[26],12%
same,"viability, T/C",[27],11.8%
same,"viability, T/C",[28],13.2%
same,"viability, T/C",[29],15.3%
same,"viability, T/C",[30],14.1%
same,"viability, T/C",[31],13.8%
same,"viability, T/C",[32],13.4%
same,"viability, T/C",[33],11.3%
same,"viability, T/C",[34],11.4%
same,"viability, T/C",[35],14.7%
same,"viability, T/C",[36],11.6%
